The values that follow come from patent US11851391B2, “Antifungal compounds and methods of forming the same” (University of Kentucky Research Foundation, priority 2018, dated 2023).

Structures are written as SMILES. Where only a bound is given, the exact number is not on record here.

In series [1] the test system is human bronchus normal cell line BEAS-2B. Briefly: In vitro cytotoxicity assay (resazurin). The format is cell-based. Conditions: 24 h. The procedure:
The human bronchus normal cell line BEAS-2B (ATCC CRL-9609) and the human lung carcinoma cell line A549 (ATCC CRL-185) were kind gifts from the laboratories of Dr. Matthew S. Gentry (University of Kentucky, Lexington, KY, USA) and Dr. David K. Orren (University of Kentucky, Lexington, KY, USA). The mammalian cells were grown in Dulbecco's Modified Eagle's Medium (DMEM) (from ATCC) with 10% fetal bovine serum (FBS) (from ATCC) and 1% Pen/Strep (from ATCC). Cell lines were cultured at 37° C. with 5% CO2 and passaged by trypsinization with 0.05% trypsin:0.53 mM EDTA (from ATCC). Cell confluency was determined by using a Nikon Eclipse TS100 microscope (Minato, Tokyo, Japan).
Cytotoxicity assays were performed as previously described with slight modifications. A549 and BEAS-2B cells were first thawed from stocks and grown. The confluent cells were transferred to a 96-well microtiter plates at density of 3000 cells/well. The 96-well plates were incubated at 37° C. with 5% CO2 overnight. […] The stock solutions were serially diluted in 1.5 mL eppendorf tubes to achieve concentrations of 31-0.12 mg/mL. 1 μL of these 1000× compound stock solutions was then added to 999 μL of DMEM medium in 1.5 mL eppendorf tubes to obtain final concentrations of 31-0.12 μg/mL. […] The 96-well plates were further incubated for 24 h at 37° C. with 5% CO2. To evaluate cell survival, each well was treated with 10 μL (25 mg/L) of resazurin sodium salt (Sigma-Aldrich, St. Louis, MO, USA) and incubated for another 6 h. Metabolically active cells can convert resazurin to the highly fluorescent dye, resorufin, and be detected at A560 excitation and A590 emission using a SpectraMax M5 plate reader (Molecular Devices, San Jose, CA, USA). […] The percentage survival rates were calculated by using the following formula: % cell survival=[(fluorescence of sample)−(fluorescence of background)]×100/[(fluorescence of negative control)−(fluorescence of background)]. Experiments were done in duplicate.
In general terms: Alamar Blue is a resazurin reagent that responds to reducing activity.

The target in another series is hERG channel (Homo sapiens, UniProt Q12809). Briefly: in vitro. Conditions: for IC50 at 60 min: human. From the text: The HEK-293 cell line stably expressing the hERG potassium channel (accession number U04270) referred to as hERG-HEK cells were received at passage 11 from Millipore (CYL3006, lot 2, Billerica, MA). [^3H]-Dofetilide (specific activity of 80 Ci/mmol; labeled on the N-methyl group) was obtained from American Radiolabeled Chemicals, St. Louis, MO Other chemicals and solvents were obtained from Sigma-Aldrich (Milwaukee, WI) with exceptions of polyethylenimine (PEI), which was obtained from Fluka/Sigma-Aldrich (St. Louis, MO), and Minimium Essential Medium (MEM) with GlutaMAX™ and phenol red, MEM non-essential amino acids solution (NEAA, 100×), G418 disulfate salt solution, fetal bovine serum (FBS), 0.05% Trypsin-EDTA 1× with phenol red, and Hank's balanced salt solution (HBSS), which were obtained from Life Technologies (Carlsbad, CA).
Chain of hERG channel (Q12809 whole entry): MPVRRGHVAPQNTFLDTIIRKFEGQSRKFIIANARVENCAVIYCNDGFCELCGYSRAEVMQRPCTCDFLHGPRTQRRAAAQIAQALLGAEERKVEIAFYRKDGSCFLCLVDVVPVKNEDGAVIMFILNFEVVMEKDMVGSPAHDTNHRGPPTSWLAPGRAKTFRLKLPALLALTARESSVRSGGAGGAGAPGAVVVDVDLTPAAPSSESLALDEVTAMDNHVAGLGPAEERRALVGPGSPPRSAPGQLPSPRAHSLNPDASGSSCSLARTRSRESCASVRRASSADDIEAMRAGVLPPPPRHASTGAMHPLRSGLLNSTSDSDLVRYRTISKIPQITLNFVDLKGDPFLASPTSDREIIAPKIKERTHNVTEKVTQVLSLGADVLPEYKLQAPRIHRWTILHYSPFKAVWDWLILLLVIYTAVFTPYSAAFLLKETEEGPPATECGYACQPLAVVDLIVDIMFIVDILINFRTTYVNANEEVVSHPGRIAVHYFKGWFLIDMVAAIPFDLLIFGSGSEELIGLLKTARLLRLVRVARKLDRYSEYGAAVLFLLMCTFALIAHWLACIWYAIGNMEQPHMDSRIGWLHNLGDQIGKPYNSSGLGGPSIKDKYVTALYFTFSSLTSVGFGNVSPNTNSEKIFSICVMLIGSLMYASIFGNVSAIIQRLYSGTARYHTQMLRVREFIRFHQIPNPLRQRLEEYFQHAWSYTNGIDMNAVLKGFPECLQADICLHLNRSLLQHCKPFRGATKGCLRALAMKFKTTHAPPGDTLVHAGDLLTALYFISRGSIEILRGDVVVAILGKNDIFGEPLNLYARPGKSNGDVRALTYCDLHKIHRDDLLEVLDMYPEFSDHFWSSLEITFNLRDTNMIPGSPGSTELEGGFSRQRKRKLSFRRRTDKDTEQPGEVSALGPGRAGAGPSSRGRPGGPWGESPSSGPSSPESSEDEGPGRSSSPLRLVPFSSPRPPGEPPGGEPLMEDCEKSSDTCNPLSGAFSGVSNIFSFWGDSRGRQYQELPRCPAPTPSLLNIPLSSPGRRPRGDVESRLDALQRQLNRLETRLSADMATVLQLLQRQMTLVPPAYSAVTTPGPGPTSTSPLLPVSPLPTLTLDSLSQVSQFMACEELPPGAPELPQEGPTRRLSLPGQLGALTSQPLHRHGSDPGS
The hERG-HEK cells were cultured according to the protocol provided by Millipore. Cells were maintained in MEM (with GlutaMAX™ and phenol red) supplemented with 10% FBS, 1% NEAA and 400 μg/mL G418 disulfate salt, and incubated at 37° C. in a humidified atmosphere with 5% CO2. Frozen aliquots of cells were transferred into T-75 cm^2 flasks and allowed to adhere for 4-8 h. The medium was replaced every 2 days. Passages were carried out at least 3 times after thawing at 6-day intervals. Cells were dissociated with trypsin/EDTA and seeded into new 150×25 mm dishes at 2-3×10^6 cells per dish and placed at 30° C., 5% CO2, for 40-48 h prior to membrane preparation. Membrane preparation occurred 6 days after the last passage (passage 20).
Cell membrane preparation was based on previous methods. Cells were rinsed twice with HBSS at 37° C. and collected by scraping the dishes in ˜20 mL of ice-cold 0.32 M sucrose and homogenized on ice with a Teflon pestle using a Maximal Digital homogenizer (Fisher Scientific, Pittsburgh, PA) at ˜280 rpm for 30 sec. Homogenates were centrifuged at 300 g and 800 g for 4 min each at 4° C. Pellets were resuspended in 9 mL of ice-cold Milli-Q H2O and osmolarity restored by addition of 1 mL of 500 mM Tris buffer (pH 7.4) followed by suspension and centrifugation at 20,000 g for 30 min at 4° C. Pellets were homogenized in 2 mL assay buffer (50 mM Tris, 10 mM KCl, and 1 mM MgCl2, 4° C.) and aliquots of cell membrane suspensions were stored at −80° C. and thawed the day of the [^3H]-dofetilide binding assay. Protein content was determined prior to the assay using a Bradford protein assay with bovine albumin as the standard.
[^3H]-Dofetilide binding assays using hERG-HEK293 cell membranes were based on previous methods. Assays determining concentration-response were conducted in duplicate, and three independent assays were performed for each analogue evaluated. Cell membrane suspension (5 μg) was added to duplicate tubes containing assay buffer, 25 μL of a single concentration of N,N-dialkylaminostilbene agent (FIDAS agent) (concentration range of 10 nM-100 μM for each experiment), and 25 μL of [^3H]-dofetilide (5 nM, final concentration) for an assay volume of 250 μL. Binding occurred for 60 min at 25° C. and was terminated by rapid filtration through Whatman GF/B filters, which were pre-soaked in 0.25% PEI overnight, using a Brandel cell/membrane harvester (M-48; Brandel Inc., Gaithersburg, MD). […] Radioactivity was determined by liquid scintillation spectrometry using the Tri-Carb 2100-TR Liquid Scintillation Analyzer (Perkin-Elmer Life and Analytical Sciences).

A word on the IC50: it is the concentration at which inhibition is half-maximal. Low values mean greater potency in that assay, high ones weaker potency in that assay. Regarding `COc1ccc(N/N=C/c2ccc(-c3ccc(/C=N/Nc4ccc(OC)cc4)cc3)cc2)cc1` [Compound 15b], the “toxicity (in words)” value in series [1] (BEAS-2B at 15.5 μg/mL) is given as “non-toxic”. For the same compound, the IC50 at 60 min on hERG channel is > 30 µM.
The corresponding values for `COc1ccc(N/N=C/c2ccc(-c3cccc(/C=N/Nc4ccc(OC)cc4)c3)cc2)cc1` [Compound 15a] are “non-toxic” and > 30 µM.
Consider `Fc1ccc(N/N=C/c2ccc(-c3cccc(/C=N/Nc4ccc(F)cc4F)c3)cc2)c(F)c1` [Compound 20a], for which the “toxicity (in words)” value in series [1] (BEAS-2B at 15.5 μg/mL) is on record as “non-toxic”.
Consider `Fc1ccc(N/N=C/c2ccc(-c3cccc(/C=N/Nc4ccc(F)cc4)c3)cc2)cc1` [Compound 17a], for which the “toxicity (in words)” value in series [1] (BEAS-2B at 31 μg/mL) is listed as “non-toxic”. Further, the IC50 at 60 min against hERG channel is > 30 µM.
For the compound `C/C(=N\Nc1ccc(F)cc1)c1ccc(-c2ccc(/C(C)=N/Nc3ccc(F)cc3)cc2)cc1` [Compound 17c, 4,4′-bis((E)-1-(2-(4-fluorophenyl)hydrazono)ethyl)-1,1′-biphenyl], the “toxicity (in words)” value in series [1] (BEAS-2B at 15.5 μg/mL) is listed as “non-toxic”. Further, at hERG channel, the “hERG inhibition (in words)” value was “no hERG inhibition” and the IC50 at 60 min is > 30 µM.
